Source: patent publication EP4509511A1, “SUBSTITUTED SPIRO-ISOXAZOLINYL LACTAMS, SALTS THEREOF AND THEIR USE AS HERBICIDALLY ACTIVE SUBSTANCES” (Bayer Aktiengesellschaft, priority 2023, dated 2025)

How the values were obtained:
STEME [1] = assay: Herbicidal post-emergence action - Part I; type: in vivo, Stellaria media; settings: one-leaf stage, rated visually after about 3 weeks vs untreated controls
Procedure: (§1) Seeds of mono- and dicotyledonous weed plants were placed in plastic pots in sandy loam soil (doubly sown with in each case one species of mono- or dicotyledonous weed plants per pot), covered with soil and cultivated in a greenhouse under controlled growth conditions. 2 to 3 weeks after sowing, the test plants were treated at the one-leaf stage. The compounds of the invention, formulated in the form of wettable powders (WP) or as emulsion concentrates (EC), were applied onto the green parts of the plants as aqueous suspension or emulsion with addition of 0.5% additive at a water application rate of 600 liters per hectare (converted). After the test plants had been kept in the greenhouse under optimum growth conditions for about 3 weeks, the activity of the preparations was rated visually in comparison to untreated controls. For example, 100% activity = the plants have died, 0% activity = like control plants. Tables B1 to B12, below, show the effects of selected compounds of the general formula (I) according to table 1 on various harmful plants and an application rate corresponding to 1280 g/ha or below obtained by the experimental procedure mentioned above. Table B1a: post-emergence activity at 1280g/ha against ABUTH in %

STEME [2] = assay: Herbicidal pre-emergence action - Part I; type: in vivo, Stellaria media; settings: visual grading after ca. 3 weeks vs untreated controls
Excerpt: (§2) Seeds of mono- and dicotyledonous weed plants were sown in plastic pots (double sowings with one species of mono- and one species of dicotyledonous weed plants per pot), in sandy loam, and covered with soil. The compounds according to the invention, formulated in the form of wettable powders (WP) or as emulsifiable concentrates (EC), were applied to the surface of the covering soil as aqueous suspension or emulsion, with the addition of 0.5% of an additive, at an application rate of 600 1 of water per hectare (converted). Following treatment, the pots were placed in a greenhouse and kept under optimum growth conditions for the test plants. The visual grading of the damage to the test plants was carried out after ca. 3 weeks in comparison to untreated controls (herbicidaleffectinpercent(%):100%effect=plantshavediedoff,0%effect=ascontrolplants). [formula]
(§3) Tables A1 to A12, below, show the effects of selected compounds of the general formula (I) according to table 1 on various harmful plants and an application rate corresponding to 1280 g/ha or below obtained by the experimental procedure mentioned above. Table A1: pre-emergence activity at 1280g/ha against ABUTH in %

ALOMY [3] = assay: Herbicidal pre-emergence action - Part I; type: in vivo, Alopecurus myosuroides; settings: visual grading after ca. 3 weeks vs untreated controls
Excerpt: as §2, §3

VERPE = assay: Herbicidal post-emergence action - Part I; type: in vivo, Veronica persica; settings: one-leaf stage, rated visually after about 3 weeks vs untreated controls
Procedure: as §1

KCHSC [4] = assay: Herbicidal pre-emergence action - Part I; type: in vivo, Kochia scoparia
Excerpt: as §2, §3

DIGSA [5] = assay: Herbicidal pre-emergence action - Part I; type: in vivo, Digitaria sanguinalis; settings: visual grading after ca. 3 weeks vs untreated controls
Excerpt: as §2, §3

SETVI [6] = assay: Herbicidal post-emergence action - Part I; type: in vivo, Setaria viridis; settings: one-leaf stage, rated visually after about 3 weeks vs untreated controls
Procedure: as §1

MATIN [7] = assay: Herbicidal pre-emergence action - Part I; type: in vivo, Matricaria inodora; settings: visual grading after ca. 3 weeks vs untreated controls
Excerpt: as §2, §3

ECHCG [8] = assay: Herbicidal post-emergence action - Part I; type: in vivo, Echinochloa crus-galli; settings: one-leaf stage, rated visually after about 3 weeks vs untreated controls
Procedure: as §1

AMARE [9] = assay: Herbicidal post-emergence action - Part I; type: in vivo, Amaranthus retroflexus; settings: one-leaf stage, rated visually after about 3 weeks vs untreated controls
Procedure: as §1

DIGSA [10] = assay: Herbicidal post-emergence action - Part I; type: in vivo, Digitaria sanguinalis; settings: 1280 g/ha, one-leaf stage, rated visually after about 3 weeks vs untreated controls
Procedure: as §1

AMARE [11] = assay: Herbicidal pre-emergence action - Part I; type: in vivo, Amaranthus retroflexus; settings: visual grading after ca. 3 weeks vs untreated controls
Excerpt: as §2, §3

LOLRI [12] = assay: Herbicidal pre-emergence action - Part I; type: in vivo, Lolium rigidum; settings: visual grading after ca. 3 weeks vs untreated controls
Excerpt: as §2, §3

KCHSC [13] = assay: Herbicidal post-emergence action - Part I; type: in vivo, Kochia scoparia; settings: one-leaf stage, rated visually after about 3 weeks vs untreated controls
Procedure: as §1

ECHCG [14] = assay: Herbicidal pre-emergence action - Part I; type: in vivo, Echinochloa crus-galli; settings: visual grading after ca. 3 weeks vs untreated controls
Excerpt: as §2, §3

SETVI [15] = assay: Herbicidal pre-emergence action - Part I; type: in vivo, Setaria viridis; settings: visual grading after ca. 3 weeks vs untreated controls
Excerpt: as §2, §3

POAAN [16] = assay: Herbicidal pre-emergence action - Part I; type: in vivo, Poa annua; settings: visual grading after ca. 3 weeks vs untreated controls
Excerpt: as §2, §3

LOLRI [17] = assay: Herbicidal post-emergence action - Part I; type: in vivo, Lolium rigidum; settings: one-leaf stage, rated visually after about 3 weeks vs untreated controls
Procedure: as §1

ABUTH [18] = assay: Herbicidal pre-emergence action - Part I; type: in vivo, Abutilon theophrasti; settings: visual grading after ca. 3 weeks vs untreated controls
Excerpt: as §2, §3

MATIN [19] = assay: Herbicidal post-emergence action - Part I; type: in vivo, Matricaria inodora; settings: one-leaf stage, rated visually after about 3 weeks vs untreated controls
Procedure: as §1

POAAN [20] = assay: Herbicidal post-emergence action - Part I; type: in vivo, Poa annua; settings: one-leaf stage, rated visually after about 3 weeks vs untreated controls
Procedure: as §1

ABUTH [21] = assay: Herbicidal post-emergence action - Part I; type: in vivo, Abutilon theophrasti; settings: one-leaf stage, rated visually after about 3 weeks vs untreated controls
Procedure: as §1

ALOMY [22] = assay: Herbicidal post-emergence action - Part I; type: in vivo, Alopecurus myosuroides; settings: one-leaf stage, rated visually after about 3 weeks vs untreated controls
Procedure: as §1

[23] = Table A10a, 1280 g/ha, visual grading after ca. 3 weeks vs untreated controls

Structure (SMILES)	post-emergence activity at 1280g/ha against STEME in % (STEME [1])	pre-emergence activity at 320g/ha against STEME in % (STEME [2])	pre-emergence activity at 1280g/ha against STEME in % (STEME [2])	post-emergence activity at 1280g/ha against VERPE in % (VERPE)	pre-emergence activity at 1280g/ha against KCHSC in % (KCHSC [4]; [23])	pre-emergence activity at 320g/ha against DIGSA in % (DIGSA [5])	pre-emergence activity at 1280g/ha against DIGSA in % (DIGSA [5])	post-emergence activity at 1280g/ha against SETVI in % (SETVI [6])	pre-emergence activity at 320g/ha against MATIN in % (MATIN [7])	pre-emergence activity at 1280g/ha against MATIN in % (MATIN [7])	post-emergence activity at 1280g/ha against ECHCG in % (ECHCG [8])	post-emergence activity at 320g/ha against AMARE in % (AMARE [9])	post-emergence activity at 1280g/ha against AMARE in % (AMARE [9])	pre-emergence activity at 1280g/ha against AMARE in % (AMARE [11])	pre-emergence activity at 1280g/ha against LOLRI in % (LOLRI [12])	post-emergence activity at 1280g/ha against KCHSC in % (KCHSC [13])	pre-emergence activity at 1280g/ha against ECHCG in % (ECHCG [14])	pre-emergence activity at 1280g/ha and against SETVI in % (SETVI [15])	pre-emergence activity at 320g/ha and against POAAN in % (POAAN [16])	pre-emergence activity at 1280g/ha and against POAAN in % (POAAN [16])	further results
N#Cc1ncccc1C1=NOC2(CCN(Cc3ccccc3F)C2=O)C1 (racemic) [Compound I-35]	90%	90%	90%	90%	90%	100%	100%	90%	90%	90%	90%	90%	90%	90%	90%	90%	100%	100%	100%	100%	pre-emergence activity at 1280g/ha against ALOMY in % (ALOMY [3]): 90%; pre-emergence activity at 1280g/ha against KCHSC in % (KCHSC [4]; 1280 g/ha, 504 h): 90%; post-emergence activity at 1280g/ha against DIGSA in % (DIGSA [10]): 90%; pre-emergence activity at 320g/ha against LOLRI in % (LOLRI [12]; 320 g/ha): 90%; pre-emergence activity at 320g/ha against ECHCG in % (ECHCG [14]): 90%; post-emergence activity at 1280g/ha against LOLRI in % (LOLRI [17]): 90%
N#Cc1ncccc1C1=NOC2(CCN(Cc3cccc(F)c3F)C2=O)C1 (racemic) [Compound I-41]	100%	90%	90%	100%	90%	90%	100%		90%	100%	100%	90%	100%	90%		90%	100%	100%	100%	100%	post-emergence activity at 80g/ha against STEME in % (STEME [1]; 80 g/ha): 100%; post-emergence activity at 320g/ha against STEME in % (STEME [1]): 100%; post-emergence activity at 320g/ha against VERPE in % (VERPE): 90%; pre-emergence activity at 1280g/ha against ABUTH in % (ABUTH [18]): 100%; post-emergence activity at 320g/ha against MATIN in % (MATIN [19]; 320 g/ha): 100%; post-emergence activity at 1280g/ha against MATIN in % (MATIN [19]): 100%; post-emergence activity at 80g/ha against POAAN in % (POAAN [20]): 90%; post-emergence activity at 320g/ha against POAAN in % (POAAN [20]): 90%; post-emergence activity at 1280g/ha against POAAN in % (POAAN [20]): 90%; post-emergence activity at 320g/ha against ECHCG in % (ECHCG [8]; 320 g/ha): 90%; post-emergence activity at 80g/ha against AMARE in % (AMARE [9]; 80 g/ha): 90%; pre-emergence activity at 320g/ha against AMARE in % (AMARE [11]): 90%; post-emergence activity at 320g/ha against ABUTH in % (ABUTH [21]): 100%
Cc1ccsc1C1=NOC2(CCCN(Cc3ccccc3F)C2=O)C1 (racemic) [Compound I-1, 7-(2-Fluorobenzyl)-3-(3-methyl-2-thienyl)-1-oxa-2,7-diazaspiro[4.5]dec-2-en-6-one]	90%	90%	90%	90%	90%		100%	90%	90%	100%	90%		90%	90%	90%	90%	100%	100%	100%	100%	post-emergence activity at 320g/ha against STEME in % (STEME [1]): 90%; pre-emergence activity at 80g/ha against STEME in % (STEME [2]; 80 g/ha): 90%; post-emergence activity at 320g/ha against VERPE in % (VERPE): 90%; post-emergence activity at 1280g/ha against MATIN in % (MATIN [19]): 90%; post-emergence activity at 80g/ha against POAAN in % (POAAN [20]): 90%; post-emergence activity at 320g/ha against POAAN in % (POAAN [20]): 90%; post-emergence activity at 1280g/ha against POAAN in % (POAAN [20]): 90%; pre-emergence activity at 1280g/ha against KCHSC in % (KCHSC [4]; Table A10b, title 1280g/ha, application rate column prints 320 g/ha, visual grading after ca. 3 weeks vs untreated controls): 90%; post-emergence activity at 320g/ha against SETVI in % (SETVI [6]; 320 g/ha): 90%; post-emergence activity at 1280g/ha against ALOMY in % (ALOMY [22]): 90%; pre-emergence activity at 320g/ha against AMARE in % (AMARE [11]): 90%; post-emergence activity at 320g/ha against KCHSC in % (KCHSC [13]; 320 g/ha): 90%; pre-emergence activity at 320g/ha against ECHCG in % (ECHCG [14]): 100%; post-emergence activity at 320g/ha against ABUTH in % (ABUTH [21]): 90%; post-emergence activity at 1280g/ha against ABUTH in % (ABUTH [21]; 1280 g/ha): 90%; pre-emergence activity at 320g/ha and against SETVI in % (SETVI [15]; 320 g/ha): 100%
